Source: publication PMC9036676 (RSC Advances, 2021)
Positions of bridges follow the written chain, without caps; N, C: chain ends. Non-standard residues stand in square brackets, D forms with d. Residues, ends and D or L forms follow the SMILES beside them. Trp(1-CH2COOH) = N[C@@H](Cc1cn(CC(=O)O)c2ccccc12)C(=O)O; Oic = O=C(O)[C@@H]1C[C@@H]2CCCC[C@@H]2N1; Hyp = O=C(O)[C@@H]1C[C@@H](O)CN1; NMeNle = CCCC[C@H](NC)C(=O)O; Pip = O=C(O)[C@@H]1CCCCN1; NMeA = CN[C@@H](C)C(=O)O; Dab = NCC[C@H](N)C(=O)O; Dap = NC[C@H](N)C(=O)O

How the values were obtained:
PD-1/PD-L1 = PD-1/PD-L1 (Homo sapiens, UniProt Q9NZQ7); assay: PD-1/PD-L1 TR-FRET assay; type: binding; conditions: IC50 on PD-1/PD-L1, TR-FRET assay
PD-1/PD-L1, sequence (Q9NZQ7 19-238 limits assumed): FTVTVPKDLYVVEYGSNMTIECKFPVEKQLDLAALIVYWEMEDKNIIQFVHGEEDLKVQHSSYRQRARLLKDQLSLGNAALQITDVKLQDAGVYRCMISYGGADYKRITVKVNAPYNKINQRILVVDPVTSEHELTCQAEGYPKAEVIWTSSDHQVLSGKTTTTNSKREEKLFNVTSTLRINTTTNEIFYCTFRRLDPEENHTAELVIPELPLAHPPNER

PD-1/PD-L1 interaction = conditions: read-out: IC50, inhibitory activity against the PD-1/PD-L1 interaction; cited from earlier work

| SMILES | IC50 (PD-1/PD-L1) [nM] | IC50 (PD-1/PD-L1 interaction) [nM] |
| --- | --- | --- |
| CCCC[C@H]1C(=O)N(C)[C@@H](CCCC)C(=O)N[C@@H](CC(C)C)C(=O)N[C@H](C(=O)NCC(N)=O)CSCC(=O)N[C@@H](Cc2ccc(O)cc2)C(=O)N2CCCC[C@H]2C(=O)N[C@@H](CC(N)=O)C(=O)N2[C@@H](C[C@@H]3CCCC[C@@H]32)C(=O)N[C@@H](CN)C(=O)N[C@@H](CC(C)C)C(=O)N2C[C@H](O)C[C@H]2C(=O)N[C@@H](Cc2c[nH]c3ccccc23)C(=O)N[C@@H](CCN)C(=O)N[C@@H](Cc2cn(CC(=O)O)c3ccccc23)C(=O)N1C [Compound 5] ({CH2CO}-Y[Pip]N[Oic][Dap]L[Hyp]W[Dab][Trp(1-CH2COOH)][NMeNle][NMeNle]LCG-NH2; thioether N-14) | 14.6 |  |
| CCCC[C@H]1C(=O)N(C)[C@@H](CCCC)C(=O)N[C@@H](CC(C)C)C(=O)N[C@H](C(=O)NCC(N)=O)CSCC(=O)N[C@@H](Cc2ccccc2)C(=O)N(C)[C@@H](C)C(=O)N[C@@H](CC(N)=O)C(=O)N2CCC[C@H]2C(=O)N[C@@H](Cc2c[nH]cn2)C(=O)N[C@@H](CC(C)C)C(=O)N2C[C@H](O)C[C@H]2C(=O)N[C@@H](Cc2c[nH]c3ccccc23)C(=O)N[C@@H](CO)C(=O)N[C@@H](Cc2c[nH]c3ccccc23)C(=O)N1C [Compound 2] ({CH2CO}-F[NMeA]NPHL[Hyp]WSW[NMeNle][NMeNle]LCG-NH2; thioether N-14) | 40.1 |  |
| CCCC[C@H]1C(=O)N(C)[C@@H](CCCC)C(=O)N[C@@H](CCCNC(=N)N)C(=O)N[C@H](C(=O)NCC(N)=O)CSCC(=O)N[C@@H](Cc2ccccc2)C(=O)N(C)[C@@H](C)C(=O)N[C@@H](CC(N)=O)C(=O)N2CCC[C@H]2C(=O)N[C@@H](Cc2c[nH]cn2)C(=O)N[C@@H](CC(C)C)C(=O)N[C@@H](CO)C(=O)N[C@@H](Cc2c[nH]c3ccccc23)C(=O)N[C@@H](CO)C(=O)N[C@@H](Cc2c[nH]c3ccccc23)C(=O)N1C [Compound 1] ({CH2CO}-F[NMeA]NPHLSWSW[NMeNle][NMeNle]RCG-NH2; thioether N-14) |  | 9 |
